Reference: patent US9315491B2 (DEVELOPMENT CENTER FOR BIOTECHNOLOGY, priority 2009, dated 2016)

What was measured:
PI3K (p110α/p85α) = PI3K (p110α/p85α) (Homo sapiens (Human), UniProt P42336); assay: PI3K HTRF enzyme assay, p110α/p85α; format: biochemical; conditions: read-out: % inhibition @ 500 nM p110α; compound at 500 nM, 10 μM ATP
Method: Recombinant PI3K (p110α/p85α) and PI3K (p110β/p85α) were from Millipore. […] Briefly, the compounds of interest dissolved in 100% DMSO were dispensed in all wells, following which the mixture of PIP2 and enzyme was added. PI3K (p110α/p85α) and PI3K (p110β/p85α) enzyme reactions were initiated in the presence of 10 μM and 100 μM ATP, respectively, and incubated for 30 min at room temperature. STOP solution prepared 2 hours prior to use was added to stop reactions, and mixed well. Detection solution prepared 2 hours prior to use was added, and incubated at room temperature for 17 hours in the dark. […] HTRF ration was calculated as follows: […]

recombinant mTOR = recombinant mTOR (Homo sapiens (Human), UniProt P42345); assay: mTOR kinase assay (33P incorporation into 4EBP1); format: biochemical; conditions: compound at 10 μM, 10 μM ATP
recombinant mTOR, sequence (P42345 1360-2549): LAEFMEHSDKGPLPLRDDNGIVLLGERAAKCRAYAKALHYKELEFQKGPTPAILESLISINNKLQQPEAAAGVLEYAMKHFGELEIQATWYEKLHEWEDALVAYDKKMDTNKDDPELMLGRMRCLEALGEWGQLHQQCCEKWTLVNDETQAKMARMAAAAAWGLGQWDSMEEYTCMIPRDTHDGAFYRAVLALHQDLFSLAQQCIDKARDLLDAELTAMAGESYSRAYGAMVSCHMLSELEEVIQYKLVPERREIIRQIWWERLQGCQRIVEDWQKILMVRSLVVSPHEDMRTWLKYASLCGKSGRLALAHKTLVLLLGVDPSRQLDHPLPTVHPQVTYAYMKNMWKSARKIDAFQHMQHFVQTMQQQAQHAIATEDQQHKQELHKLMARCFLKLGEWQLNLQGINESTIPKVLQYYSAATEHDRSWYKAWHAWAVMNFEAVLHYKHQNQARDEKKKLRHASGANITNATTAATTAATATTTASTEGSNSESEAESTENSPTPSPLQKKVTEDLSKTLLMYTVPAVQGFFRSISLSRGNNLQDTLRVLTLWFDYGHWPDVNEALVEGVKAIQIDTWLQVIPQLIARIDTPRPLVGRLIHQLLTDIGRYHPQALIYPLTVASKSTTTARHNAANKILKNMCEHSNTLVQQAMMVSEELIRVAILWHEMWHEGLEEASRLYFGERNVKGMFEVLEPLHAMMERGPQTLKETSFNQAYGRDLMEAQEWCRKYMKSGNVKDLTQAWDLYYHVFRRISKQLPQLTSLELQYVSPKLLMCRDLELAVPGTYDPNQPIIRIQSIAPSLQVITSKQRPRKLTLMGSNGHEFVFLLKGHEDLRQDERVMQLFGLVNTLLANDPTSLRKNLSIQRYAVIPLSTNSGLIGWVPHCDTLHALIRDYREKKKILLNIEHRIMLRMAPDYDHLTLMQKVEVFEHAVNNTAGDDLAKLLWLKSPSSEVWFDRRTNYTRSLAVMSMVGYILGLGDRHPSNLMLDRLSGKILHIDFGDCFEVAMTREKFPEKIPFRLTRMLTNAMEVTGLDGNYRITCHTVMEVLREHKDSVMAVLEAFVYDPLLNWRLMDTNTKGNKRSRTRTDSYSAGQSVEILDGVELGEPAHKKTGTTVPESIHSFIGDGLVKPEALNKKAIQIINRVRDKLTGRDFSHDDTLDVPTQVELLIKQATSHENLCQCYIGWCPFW
Outline: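 Recombinant human mTOR (50 ng) phosphorylated His-tagged 4EBP1 (300 ng) with 10 μM ATP plus [γ-33P]-ATP in HEPES pH 7.5, MnCl2, EGTA and DTT for 30 min at 30° C. Labelled 4EBP1 was filter-captured and counted. IC50 was derived from eight-point duplicate dilution series.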

PI3K (p110α/p85α), sequence (P42336 whole entry, species assumed): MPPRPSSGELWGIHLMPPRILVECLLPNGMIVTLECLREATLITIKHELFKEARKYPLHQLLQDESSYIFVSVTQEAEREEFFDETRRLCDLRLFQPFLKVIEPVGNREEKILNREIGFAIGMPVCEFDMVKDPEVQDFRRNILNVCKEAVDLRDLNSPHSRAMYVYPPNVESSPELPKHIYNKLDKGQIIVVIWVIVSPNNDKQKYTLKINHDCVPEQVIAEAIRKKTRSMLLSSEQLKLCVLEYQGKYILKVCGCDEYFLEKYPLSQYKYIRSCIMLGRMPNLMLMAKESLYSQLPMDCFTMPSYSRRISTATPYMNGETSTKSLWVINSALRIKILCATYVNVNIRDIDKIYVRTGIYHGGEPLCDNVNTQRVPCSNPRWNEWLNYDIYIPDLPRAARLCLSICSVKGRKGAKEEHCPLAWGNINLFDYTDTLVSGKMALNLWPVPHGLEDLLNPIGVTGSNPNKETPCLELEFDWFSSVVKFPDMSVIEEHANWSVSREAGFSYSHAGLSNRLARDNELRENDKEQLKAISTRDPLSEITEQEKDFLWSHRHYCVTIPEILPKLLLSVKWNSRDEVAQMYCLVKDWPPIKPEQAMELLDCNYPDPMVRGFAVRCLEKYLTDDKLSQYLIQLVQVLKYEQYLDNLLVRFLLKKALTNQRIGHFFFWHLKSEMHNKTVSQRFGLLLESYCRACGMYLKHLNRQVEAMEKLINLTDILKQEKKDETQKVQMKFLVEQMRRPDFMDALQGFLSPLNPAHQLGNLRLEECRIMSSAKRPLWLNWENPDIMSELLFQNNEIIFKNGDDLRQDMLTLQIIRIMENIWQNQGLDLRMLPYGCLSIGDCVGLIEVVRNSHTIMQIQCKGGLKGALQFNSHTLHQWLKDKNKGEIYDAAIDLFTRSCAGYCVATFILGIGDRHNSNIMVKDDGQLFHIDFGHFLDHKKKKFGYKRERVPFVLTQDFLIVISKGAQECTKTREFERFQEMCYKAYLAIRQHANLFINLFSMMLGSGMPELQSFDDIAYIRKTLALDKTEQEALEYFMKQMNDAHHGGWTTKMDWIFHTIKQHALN
PI3K (p110α/p85α), sequence (P27986 whole entry partner, species assumed): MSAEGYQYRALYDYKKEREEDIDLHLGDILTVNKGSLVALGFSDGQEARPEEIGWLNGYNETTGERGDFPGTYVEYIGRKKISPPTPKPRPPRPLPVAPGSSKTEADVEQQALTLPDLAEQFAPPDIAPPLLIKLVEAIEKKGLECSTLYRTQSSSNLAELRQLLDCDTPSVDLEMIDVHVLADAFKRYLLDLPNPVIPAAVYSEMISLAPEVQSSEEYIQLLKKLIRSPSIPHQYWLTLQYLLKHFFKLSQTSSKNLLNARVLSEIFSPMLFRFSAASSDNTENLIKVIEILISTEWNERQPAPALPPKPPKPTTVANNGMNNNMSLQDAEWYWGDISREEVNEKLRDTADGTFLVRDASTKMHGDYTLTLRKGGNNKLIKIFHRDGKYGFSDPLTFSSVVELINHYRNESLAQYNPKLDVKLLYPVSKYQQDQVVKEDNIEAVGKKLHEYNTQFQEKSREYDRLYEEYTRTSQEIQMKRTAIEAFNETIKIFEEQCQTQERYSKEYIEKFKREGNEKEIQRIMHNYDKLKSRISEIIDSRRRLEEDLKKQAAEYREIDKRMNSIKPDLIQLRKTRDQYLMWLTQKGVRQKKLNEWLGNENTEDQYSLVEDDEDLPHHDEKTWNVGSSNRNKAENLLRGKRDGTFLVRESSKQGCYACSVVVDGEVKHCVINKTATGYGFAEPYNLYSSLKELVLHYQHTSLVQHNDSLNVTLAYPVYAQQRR

inhibition at 0.5 µM (PI3K (p110α/p85α))	inhibition at 10 µM (recombinant mTOR)	SMILES
46.6%	–	CSc1c(-c2ccncc2)nc(-c2ccc(NC(=O)Nc3ccc(C(N)=O)cc3)cc2)nc1N1CCOCC1 [MTR-0392, 4-{3-[4-(5-Methylsulfanyl-4-morpholin-4-yl-6-pyridin-4-yl-pyrimidin-2-yl)-phenyl]-ureido}-benzamide]
93.4%	–	CSc1cnc(-c2ccc(NC(=O)Nc3ccc(C(=O)N4CCOCC4)cc3)cc2)nc1N1CCOCC1 [MTR-0461, 1-[4-(5-Methylsulfanyl-4-morpholin-4-yl-pyrimidin-2-yl)-phenyl]-3-[4-(morpholine-4-carbonyl)-phenyl]-urea]
101%	–	CCOc1cnc(-c2ccc(NC(=O)Nc3ccc(NC(C)=O)cc3)cc2)nc1N1CCOCC1 [MTR-0368, N-(4-{3-[4-(5-Ethoxy-4-morpholin-4-yl-pyrimidin-2-yl)-phenyl]-ureido}-phenyl)-acetamide]
95.5%	–	CSc1c(Cl)nc(-c2ccc(NC(=O)Nc3ccc4oc(=O)[nH]c4c3)cc2)nc1N1CCOCC1 [MTR-0372, 1-[4-(4-Chloro-5-methylsulfanyl-6-morpholin-4-yl-pyrimidin-2-yl)-phenyl]-3-(2-oxo-2,3-dihydro-benzooxazol-5-yl)-urea]
74.4%	–	O=C(Nc1ccc(C(=O)N2CCOCC2)cc1)Nc1ccc(-c2ncc(OCCN3CCOCC3)c(N3CCOCC3)n2)cc1 [MTR-0454, 1-[4-(Morpholine-4-carbonyl)-phenyl]-3-{4-[4-morpholin-4-yl-5-(2-morpholin-4-yl-ethoxy)-pyrimidin-2-yl]-phenyl}-urea]
66.9%	–	CSc1cnc(-c2ccc(NC(=O)Nc3ccc(S(C)(=O)=O)cc3)cc2)nc1N1CCOCC1 [MTR-0404, 1-(4-Methanesulfonyl-phenyl)-3-[4-(5-methylsulfanyl-4-morpholin-4-yl-pyrimidin-2-yl)-phenyl]-urea]
71.5%	–	CCOc1cnc(-c2ccc(NC(=O)Nc3ccc(S(C)(=O)=O)cc3)cc2)nc1N1CCOCC1 [MTR-0424, 1-[4-(5-Ethoxy-4-morpholin-4-yl-pyrimidin-2-yl)-phenyl]-3-(4-methanesulfonyl-phenyl)-urea]
66.3%	–	CCOc1cnc(-c2ccc(NC(=O)Nc3ccncc3)cc2)nc1N1CCOCC1 [MTR-0446, 1-[4-(5-Ethoxy-4-morpholin-4-yl-pyrimidin-2-yl)-phenyl]-3-pyridin-4-yl-urea]

The next lines start with the molecule.

SMILES	inhibition at 0.5 µM (PI3K (p110α/p85α))	inhibition at 10 µM (recombinant mTOR)
COc1cnc(-c2ccc(NC(=O)Nc3cccc(F)c3)cc2)nc1N1CCOCC1 [MTR-0164, 1-(3-Fluoro-phenyl)-3-[4-(5-methoxy-4-morpholin-4-yl-pyrimidin-2-yl)-phenyl]-urea]	84.7%	91%
CSc1cnc(-c2ccc(NC(=O)Nc3ccccc3)cc2)nc1N1CCOCC1 [MTR-0162, 1-[4-(5-Methylsulfanyl-4-morpholin-4-yl-pyrimidin-2-yl)-phenyl]-3-phenyl-urea]	102%	95%
CCOC(=O)c1nc(-c2ccc(NC(=O)Nc3cccc(F)c3)cc2)nc(N2CCOCC2)c1OCC [MTR-0147, 5-Ethoxy-2-{4-[3-(3-fluoro-phenyl)-ureido]-phenyl}-6-morpholin-4-yl-pyrimidine-4-carboxylic acid ethyl ester]	52.4%	95%
CSc1cnc(-c2ccc(NC(=O)Nc3ccc(F)cc3)cc2)nc1N1CCOCC1 [MTR-0178, 1-(4-Fluoro-phenyl)-3-[4-(5-methylsulfanyl-4-morpholin-4-yl-pyrimidin-2-yl)-phenyl]-urea]	48.8%	90%
CSc1c(Cl)nc(-c2ccc(NC(=O)Nc3cccc(NC(C)=O)c3)cc2)nc1N1CCOCC1 [MTR-0270, N-(3-{3-[4-(4-Chloro-5-methylsulfanyl-6-morpholin-4-yl-pyrimidin-2-yl)-phenyl]-ureido}-phenyl)-acetamide]	41.1%	96%
CCOc1c(CN2CCN(S(C)(=O)=O)CC2)nc(-c2ccc(NC(=O)Nc3ccccc3)cc2)nc1N1CCOCC1 [MTR-0169, 1-{4-[5-Ethoxy-4-(4-methanesulfonyl-piperazin-1-ylmethyl)-6-morpholin-4-yl-pyrimidin-2-yl]-phenyl}-3-phenyl-urea]	52.7%	96%
CSc1c(OCCN(C)C)nc(-c2cccc(O)c2)nc1N1CCOCC1 [MTR-0043, 3-[4-(2-Dimethylamino-ethoxy)-5-methylsulfanyl-6-morpholin-4-yl-pyrimidin-2-yl]-phenol]	85.4%	96%
COc1cnc(-c2ccc(NC(=O)Nc3ccc(N4CCOCC4)c(F)c3)cc2)nc1N1CCOCC1 [MTR-0242, 1-(3-Fluoro-4-morpholin-4-yl-phenyl)-3-[4-(5-methoxy-4-morpholin-4-yl-pyrimidin-2-yl)-phenyl]-urea]	96.3%	–
COc1cnc(-c2ccc(NC(=O)Nc3cccnc3)cc2)nc1N1CCOCC1 [MTR-0228, 1-[4-(5-Methoxy-4-morpholin-4-yl-pyrimidin-2-yl)-phenyl]-3-pyridin-3-yl-urea]	74.4%	–
COc1cnc(-c2ccc(NC(=O)Nc3ccc(C(N)=O)cc3)cc2)nc1N1CCOCC1 [MTR-0282, 4-{3-[4-(5-Methoxy-4-morpholin-4-yl-pyrimidin-2-yl)-phenyl]-ureido}-benzamide]	76.8%	–
CCOc1c(C(=O)N2CCOCC2)nc(-c2ccc(NC(=O)Nc3ccccc3)cc2)nc1N1CCOCC1 [MTR-0124, 1-{4-[5-Ethoxy-4-(morpholine-4-carbonyl)-6-morpholin-4-yl-pyrimidin-2-yl]-phenyl}-3-phenyl-urea]	49.1%	–
COc1cnc(-c2ccc(NC(=O)Nc3ccc(S(N)(=O)=O)cc3)cc2)nc1N1CCOCC1 [MTR-0283, 4-{3-[4-(5-Methoxy-4-morpholin-4-yl-pyrimidin-2-yl)-phenyl]-ureido}-benzenesulfonamide]	72.9%	–
CSc1c(Cl)nc(-c2ccc(NC(=O)Nc3cccnc3)cc2)nc1N1CCOCC1 [MTR-0197, 1-[4-(4-Chloro-5-methylsulfanyl-6-morpholin-4-yl-pyrimidin-2-yl)-phenyl]-3-pyridin-3-yl-urea]	59.8%	–
CSc1c(Cl)nc(-c2ccc(NC(=O)Nc3ccccc3)cc2)nc1N1CCOCC1 [MTR-0091, 1-[4-(4-Chloro-5-methylsulfanyl-6-morpholin-4-yl-pyrimidin-2-yl)-phenyl]-3-phenyl-urea]	60.9%	92%
CSc1c(Cl)nc(-c2ccc(NC(=O)Nc3ccc(C(=O)N4CCOCC4)cc3)cc2)nc1N1CCOCC1 [MTR-0308, 1-[4-(4-Chloro-5-methylsulfanyl-6-morpholin-4-yl-pyrimidin-2-yl)-phenyl]-3-[4-(morpholine-4-carbonyl)-phenyl]-urea]	106%	–
